Values joined by “and” are separate entries in the source; they are usually repeats but may differ in a detail not shown here. Equal entries are not always repeated. Where two headings read alike, the source gives them in different places.
How the values were obtained:
[1] = tested on: green peach aphid (Myzus persicae); experiment: Contrasting example: Myzus persicae spray test (MYZUPE); type: in vivo; conditions: MYZUPE, 100 g ai/ha, 6 dat; for pest or weed control at 100 g/ha: Myzus persicae, 144 h, read-out: % efficacy
Protocol: Myzus persicae—Spray Test (MYZUPE)
Solvents: 78.0 parts by weight of acetone • • 1.5 parts by weight of dimethylformamide
(§1) Emulsifier: alkylaryl polyglycol ether
(§2) To produce a suitable active compound preparation, 1 part by weight of active compound is dissolved using the stated parts by weight of solvent and made up with water containing an emulsifier concentration of 1000 ppm until the desired concentration is attained. To produce further test concentrations, the preparation is diluted with emulsifier-containing water.
Discs of Chinese cabbage leaves (Brassica pekinensis), infested by all stages of the green peach aphid (Myzus persicae) are sprayed with an active compound preparation of the desired concentration.
After the desired period of time, the efficacy in % is determined. 100% means that all aphids were killed; 0% means that no aphids were killed.

[2] = tested on: green peach aphid (Myzus persicae); experiment: Myzus persicae spray test (Chinese cabbage leaf discs); type: in vivo; conditions: after 5 or 6 days, Chinese cabbage leaf discs; for pest or weed control at 500 g/ha: Myzus persicae, foliar, read-out: efficacy (aphids killed)
Protocol: Myzus persicae—Spray Test
Solvent: 78 parts by weight of acetone • • 1.5 parts by weight of dimethylformamide
as §1, §2
Discs of Chinese cabbage leaves (Brassica pekinensis) infested by all stages of the green peach aphid (Myzus persicae) are sprayed with an active compound preparation of the desired concentration.
After 5 or 6 days, the efficacy in % is determined. 100% means that all the aphids were killed; 0% means that no aphids were killed.

[3] = log P by HPLC on reversed-phase C18 columns (OECD Guideline 117); type: physicochemical; conditions: for chromatographic logP: reversed-phase C18 HPLC column; for logP[a]: method [a]; for logP[b]: method [b]
Protocol: The log P values were determined in accordance with OECD Guideline 117 (EC Directive 92/69/EEC) by HPLC (high-performance liquid chromatography) using reversed-phase (RP) columns (C18), by the following methods:
[a] The LC-MS determination in the acidic range was carried out at pH 2.7 with 0.1% aqueous formic acid and acetonitrile (contains 0.1% formic acid) as mobile phases; linear gradient from 10% acetonitrile to 95% acetonitrile.
[b] LC-MS determination in the neutral range was carried out at pH 7.8 with 0.001 molar aqueous ammonium hydrogencarbonate solution and acetonitrile as mobile phases; linear gradient from 10% acetonitrile to 95% acetonitrile.

[4] = pH 2.7, acidic range, pH 2.7, 0.1% aqueous formic acid / acetonitrile, read-out: log P[a]
[5] = pH 7.8, neutral range, pH 7.8, 0.001 molar aqueous ammonium hydrogencarbonate / acetonitrile, read-out: log P[n]

With Cc1cc(C)nc(Sc2ncc(C(=O)N(C)c3cccnc3)n2C)n1 [I-A-1] the pest or weed control at 100 g/ha [1] was 100%, the pest or weed control at 500 g/ha ([2]; application rate 500 g/ha) was 100% and the “log P[a]” value ([3]; acidic range, pH 2.7, 0.1% aqueous formic acid / acetonitrile) was 1.26. The “log P[n]” value ([3]; neutral range, pH 7.8, 0.001 molar aqueous ammonium hydrogencarbonate / acetonitrile) was 1.46, the chromatographic logP [3, 4] was 1.31 and the chromatographic logP [3, 5] was 1.41.
CN(C(=O)c1cnc(SCC2CC2)n1C)c1cccnc1 [I-A-2] gave a pest or weed control at 100 g/ha [1] of 90%, a pest or weed control at 500 g/ha ([2]; application rate 500 g/ha) of 100% and a chromatographic logP [3, 4] of 1.28. It also gave a chromatographic logP [3, 5] of 1.81.
CN(C(=O)c1cnc(Sc2ncccn2)n1C)c1cccnc1 [I-A-3] showed a pest or weed control at 100 g/ha [1] of 90%, a pest or weed control at 500 g/ha ([2]; application rate 500 g/ha) of 100% and a chromatographic logP [3, 4] of 0.69. For the same compound, the chromatographic logP [3, 5] was 0.98.
For CCCCSc1ncc(C(=O)N(C)c2cccnc2)n1C [I-A-5], the “% efficacy” value [1] was 100%, the “efficacy (aphids killed)” value ([2]; application rate 500 g/ha) was 90% and the “logP[a]” value [3] was 1.67. For the same compound, the “logP[b]” value [3] was 1.99.
With CN(C(=O)c1cnc(S(C)(=O)=O)n1C)c1cccnc1 [I-A-8] the “% efficacy” value [1] was 90%, the “efficacy (aphids killed)” value ([2]; application rate 500 g/ha) was 100% and the “logP[a]” value [3] was 0.45. For the same compound, the “logP[b]” value [3] was 0.67.
In the case of CSc1cccc(Sc2ncc(C(=O)N(C)c3cccnc3)n2C)c1 [I-A-9], the “% efficacy” value [1] is reported as 70%, the “efficacy (aphids killed)” value ([2]; application rate 20 g/ha) is reported as 90% and the “logP[a]” value [3] is reported as 2.0. The “logP[b]” value [3] was 2.12.
For CN(C(=O)c1cnc(SCC(F)(F)F)n1C)c1cccnc1 [I-A-10], the “% efficacy” value [1] was 100%, the “efficacy (aphids killed)” value ([2]; application rate 500 g/ha) was 100% and the “logP[a]” value [3] was 1.41. The “logP[b]” value [3] was 1.54.
For CN(C(=O)c1cnc(Sc2ccccc2)n1C)c1cccnc1 [I-A-11], the “% efficacy” value [1] was 90%, the “efficacy (aphids killed)” value ([2]; application rate 500 g/ha) was 100% and the “logP[a]” value [3] was 1.55. For the same compound, the “logP[b]” value [3] was 1.75.
In the case of Cc1ccc(Sc2ncc(C(=O)N(C)c3cccnc3)n2C)cc1 [I-A-12], the “% efficacy” value [1] is reported as 70%, the “efficacy (aphids killed)” value ([2]; application rate 500 g/ha) is reported as 90% and the “logP[a]” value [3] is reported as 1.89. For the same compound, the “logP[b]” value [3] was 2.03.
For CCSCCSc1ncc(C(=O)N(C)c2cccnc2)n1C [I-A-14], the “% efficacy” value [1] was 90%, the “efficacy (aphids killed)” value ([2]; application rate 500 g/ha) was 90% and the “logP[a]” value [3] was 1.61. The “logP[b]” value [3] was 1.87.
For COCCSc1ncc(C(=O)N(C)c2cccnc2)n1C [I-A-18], the “% efficacy” value [1] was 90%, the “efficacy (aphids killed)” value ([2]; application rate 500 g/ha) was 100% and the “logP[a]” value [3] was 0.76. For the same compound, the “logP[b]” value [3] was 1.14.
With CC(C)Sc1ncc(C(=O)N(C)c2cccnc2)n1C [I-A-19] the “% efficacy” value [1] was 90%, the “efficacy (aphids killed)” value ([2]; application rate 500 g/ha) was 100% and the “logP[a]” value [3] was 1.23. For the same compound, the “logP[b]” value [3] was 1.53.
For CCCSc1ncc(C(=O)N(C)c2cccnc2)n1C [I-A-21], the “% efficacy” value [1] was 100%, the “efficacy (aphids killed)” value ([2]; application rate 500 g/ha) was 100% and the “logP[a]” value [3] was 1.31. For the same compound, the “logP[b]” value [3] was 1.60.
In the case of CCOCCSc1ncc(C(=O)N(C)c2cccnc2)n1C [I-A-22], the “% efficacy” value [1] is reported as 90%, the “efficacy (aphids killed)” value ([2]; application rate 500 g/ha) is reported as 100% and the “logP[a]” value [3] is reported as 1.04. The “logP[b]” value [3] was 1.41.
For CSCCSc1ncc(C(=O)N(C)c2cccnc2)n1C [I-A-26], the “% efficacy” value [1] was 70%, the “efficacy (aphids killed)” value ([2]; application rate 500 g/ha) was 100% and the “logP[a]” value [3] was 1.23. For the same compound, the “logP[b]” value [3] was 1.55.
In the case of C=CCSc1ncc(C(=O)N(C)c2cccnc2)n1C [I-A-27], the “% efficacy” value [1] is reported as 70%, the “efficacy (aphids killed)” value ([2]; application rate 500 g/ha) is reported as 90% and the “logP[a]” value [3] is reported as 1.08 and 1.11. The “logP[b]” value [3] was 1.40.
For C#CCSc1ncc(C(=O)N(C)c2cccnc2)n1C [I-A-30], the “% efficacy” value [1] was 90%, the “efficacy (aphids killed)” value ([2]; application rate 500 g/ha) was 90% and the “logP[a]” value [3] was 0.87. The “logP[b]” value [3] was 1.22.
Compound CNC(=O)C[S+]([O-])c1ncc(C(=O)N(C)c2cccnc2)n1C (stereo not shown) [I-A-43] has a pest or weed control at 100 g/ha [1] of 70%, a chromatographic logP ([3]; pH 2.7, method [a], read-out: logP[a]) of 0.27 and a chromatographic logP ([3]; pH 7.8, method [b], read-out: logP[b]) of 0.22.
With CN(C(=O)c1cnc(Sc2cc(Cl)c(Cl)cc2Cl)n1C)c1cccnc1 [I-A-56] the “% efficacy” value [1] was 70%, the “logP[a]” value [3] was 2.86 and the “logP[b]” value [3] was 2.92.
With CN(C(=O)c1cnc(Sc2cccc(C(F)(F)F)c2)n1C)c1cccnc1 [I-A-61] the “% efficacy” value [1] was 90% and the “efficacy (aphids killed)” value ([2]; application rate 500 g/ha) was 90%.
For CN(C(=O)c1cnc([S+]([O-])c2cc(Cl)cc(Cl)c2)n1C)c1cccnc1 (stereo not shown) [I-A-77], the “% efficacy” value [1] was 70% and the “efficacy (aphids killed)” value ([2]; application rate 500 g/ha) was 90%.
With Cc1ccc(Sc2ncc(C(=O)N(C)c3cccnc3)n2C)nc1 [I-A-109] the “% efficacy” value [1] was 70% and the “efficacy (aphids killed)” value ([2]; application rate 500 g/ha) was 90%.

— US10368545B2, “Substituted 2-thioimidazolylcarboxamides as pesticides” (BAYER CROPSCIENCE AKTIENGESELLSCHAFT, priority 2015, dated 2019)
